Reference: article PMC6470523, “Introduction of Nonacidic Side Chains on 6-Ethylcholane Scaffolds in the Identification of Potent Bile Acid Receptor Agonists with Improved Pharmacokinetic Properties” (Molecules, 2019)
Values after ≈ are worked out from the molar mass of the structure shown.

Assays:
[1] = Aqueous solubility measurement (PBS pH 7.4, LC-MS); type: physicochemical; settings: aqueous buffer, kinetic from dmso stock; aqueous solubility at pH 7.4 (PBS), 24 h room temperature
Method: (§1) Chromatography was performed using an Alliance pump system coupled to a Q-ToF Premiere (Waters Co., Milford, MA, USA). The mixture was separated on a Luna 5 µm C8(2) 100° A 150 × 2 mm from Phenomenex. The mobile phase consisted of 0.2% formic acid (FA) in water as solvent A and 0.2% FA in acetonitrile as solvent B at a flow rate of 200 μL/min. The gradient was as follows: 0–2 min (70% A and 30% B), 2–20 min (5% A and 95% B), 20–30 min (70% A and 30% B). The detection of analytes was achieved by electrospray ionization (ESI) in the positive mode with the appropriate MS/MS transitions, if necessary.
Ten microliters of a 10 mM solution in DMSO of each compound was diluted either in 490 μL of PBS pH 7.4 or in organic solvent MeOH (in triplicate). The tubes were gently shaken 24 h at room temperature, then centrifuged for 5 min at 4000 rpm. 10 microliters of sample were diluted in 490 μL of MeOH. The solubility is determined by the ratio of mass signal area PBS/organic solvent.

human GPBAR1 = target: T1, human GPBAR1 (Homo sapiens, UniProt Q8TDU6); experiment: GPBAR1 transactivation (CRE luciferase reporter) assay in HEK293T cells; type: cell-based; settings: for EC50: dose response 0.5 to 50 µM, 18 h; for GPBAR1 Eff (%) vs 6-ECDCA: maximum efficacy of compound (10 µM) relative to 6-ECDCA (1 µM) set as 100, CRE transactivation; for GPBAR1 Eff (%) vs TLCA: maximum efficacy of compound (10 µM) relative to TLCA (10 μM) set as 100, CRE transactivation
T1 construct: expressed in transfected cells; host or cells: HEK293T
T1 sequence (Q8TDU6 1-330): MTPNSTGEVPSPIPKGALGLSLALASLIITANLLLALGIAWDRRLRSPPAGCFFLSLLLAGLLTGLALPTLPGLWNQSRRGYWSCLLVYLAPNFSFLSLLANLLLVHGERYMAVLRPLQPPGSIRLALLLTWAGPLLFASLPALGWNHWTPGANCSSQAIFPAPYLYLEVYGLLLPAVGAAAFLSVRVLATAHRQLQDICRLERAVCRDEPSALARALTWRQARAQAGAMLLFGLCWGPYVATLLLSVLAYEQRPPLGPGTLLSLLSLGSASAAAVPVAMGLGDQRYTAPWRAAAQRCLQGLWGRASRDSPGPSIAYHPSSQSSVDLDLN
Method: (§2) To evaluate FXR mediated transactivation, HepG2 cells were transfected with 100 ng of human pSG5-FXR, 100 ng of human pSG5-RXR, 200 ng of the reporter vector p(hsp27)-TK-LUC containing the FXR response element IR1 cloned from the promoter of heat shock protein 27 (hsp27) and with 100 ng of pGL4.70 (Promega), a vector encoding the human Renilla gene. To evaluate GPBAR1 mediated transactivation, HEK293T cells were transfected with 200 ng of human pGL4.29 (Promega), a reporter vector containing a cAMP response element (CRE) that drives the transcription of the luciferase reporter gene luc2P, with 100 ng of pCMVSPORT6-human GPBAR1, and with 100 ng of pGL4.70. […] After treatments, 10 μL of cellular lysates were read using a Dual-Luciferase Reporter Assay System (Promega Italia srl, Milan, Italy) according manufacturer specifications using the Glomax20/20 luminometer (Promega Italia srl, Milan, Italy). Luciferase activities were assayed and normalized with Renilla activities.
(§3) At 18 h post stimulations, cellular lysates were assayed for luciferase and Renilla activities using the Dual-Luciferase Reporter Assay System (E1980, Promega Italia srl, Milan, Italy). Luminescence was measured using Glomax 20/20 luminometer (Promega Iralia srl, Milan, Italy). Luciferase activities were normalized with Renilla activities.

[2] = Liver microsomal stability; type: in vitro ADME, mouse; settings: liver microsomes; for microsomal CLint at 1 µM / half-life at 1 µM: male, CD-1, mouse, pH 7.4, 1 μM compound, 37 °C; for half-life at 1 µM: read-out: t½
Method: as §1
Male mouse (CD-1) liver microsomes (Sigma-Aldrich, St. Louis, MO, USA) were used. All incubations were performed in duplicate in a shaking water bath at 37 °C. The incubation mixtures contained 1 μM compound with 1% DMSO used as a vehicle, mouse liver microsomes (0.3 mg of microsomal protein per mL), 5 mM MgCl2, 1 mM NADP, 5 mM glucose 6-phosphate, 0.4 U·mL^−1 glucose 6-phosphate dehydrogenase, and 50 mM potassium phosphate buffer (pH 7.4) in a final volume of 0.5 mL. Aliquots were removed at 0, 5, 10, 20, 30, and 40 min after microsome addition and the reaction was stopped by adding 200 μL of ice-cold acetonitrile. After two hours, the samples were centrifuged for 10 min at 10,000 rpm, and the supernatants were transferred in matrix tubes for LC-MS/MS analysis. LC-MS/MS analysis were carried out setting the m/z window around the value of the MH^+ of the unmodified compounds.
Propranolol, known as a high hepatic clearance drug in rodents, was used as a quality-control compound for the microsomal incubations. The slope of the linear regression of the curve obtained reporting the natural logarithm of compound area versus incubation time (−k) was used in the conversion to in vitro t1/2 values by t1/2 = −ln(2)/k. In vitro intrinsic clearance (Clint expressed as μL/min/mg) was calculated according to the following formula: Clint = volume of reaction (µL)/t1/2(min)/protein of liver microsomes (mg). The percentage of unmodified compound has been calculated assuming the area of the compound peak at time 0 min as 100%.

human FXR = target: T2, human FXR (Homo sapiens, UniProt Q96RI1); experiment: FXR transactivation luciferase reporter assay in HepG2 cells; type: cell-based; settings: for EC50: dose response 0.5 to 50 µM, 18 h; for EC50 / FXR Eff (%) vs 6-ECDCA / FXR Eff (%) vs CDCA: HepG2 cells; for FXR Eff (%) vs 6-ECDCA: maximum efficacy of compound (10 µM) relative to 6-ECDCA (1 µM) set as 100%; for FXR Eff (%) vs 6-ECDCA / FXR Eff (%) vs CDCA: FRE transactivation; for FXR Eff (%) vs CDCA: maximum efficacy of compound (10 µM) relative to CDCA (10 μM) set as 100%; for FXR activity (in words): transactivation assay
T2 construct: expressed in transfected cells; host or cells: HepG2
T2 sequence (Q96RI1 1-486): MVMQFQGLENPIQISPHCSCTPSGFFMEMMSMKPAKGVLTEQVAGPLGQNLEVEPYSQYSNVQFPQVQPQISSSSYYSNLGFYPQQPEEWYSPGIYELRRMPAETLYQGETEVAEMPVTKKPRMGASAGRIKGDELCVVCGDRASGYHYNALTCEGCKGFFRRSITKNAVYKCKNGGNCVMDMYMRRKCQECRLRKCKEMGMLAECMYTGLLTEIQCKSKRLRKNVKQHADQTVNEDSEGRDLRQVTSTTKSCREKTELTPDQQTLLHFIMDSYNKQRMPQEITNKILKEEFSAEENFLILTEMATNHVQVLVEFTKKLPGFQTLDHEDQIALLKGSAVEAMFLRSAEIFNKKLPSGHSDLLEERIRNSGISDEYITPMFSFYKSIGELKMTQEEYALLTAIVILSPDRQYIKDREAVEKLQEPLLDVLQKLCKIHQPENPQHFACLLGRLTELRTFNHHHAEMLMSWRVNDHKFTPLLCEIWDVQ
T2 sequence (P19793 1-462 partner): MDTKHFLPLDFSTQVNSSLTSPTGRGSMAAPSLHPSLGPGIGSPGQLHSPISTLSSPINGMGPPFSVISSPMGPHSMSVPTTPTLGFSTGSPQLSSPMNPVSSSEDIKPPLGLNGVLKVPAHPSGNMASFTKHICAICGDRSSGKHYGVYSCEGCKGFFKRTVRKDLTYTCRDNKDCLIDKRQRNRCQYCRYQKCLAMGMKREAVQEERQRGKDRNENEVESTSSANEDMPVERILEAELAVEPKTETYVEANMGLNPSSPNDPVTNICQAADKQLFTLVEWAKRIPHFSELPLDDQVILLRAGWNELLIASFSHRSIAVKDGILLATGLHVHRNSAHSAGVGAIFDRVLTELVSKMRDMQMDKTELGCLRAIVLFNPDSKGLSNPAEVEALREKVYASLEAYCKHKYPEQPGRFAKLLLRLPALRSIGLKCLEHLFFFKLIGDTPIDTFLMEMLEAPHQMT
Method: as §2, §3

[3] = test system: pro-glucagon mRNA in GLUTag cells; experiment: RT-PCR of GPBAR1 target gene pro-glucagon mRNA in GLUTag cells; type: cell-based, murine; settings: 1 and 10 µM, 18 h, Figure 2A
Method: (§4) HepG2 and GLUTag cells were plated at 1 × 10^6 cells/well in a six well plate. […] Total RNA was isolated from cells using the TRIzol reagent according to the manufacturer's specifications (Invitrogen, Carlsbad, CA, USA). One microgram of purified RNA was treated with DNase-I and reverse transcribed with Superscript II (Invitrogen, Carlsbad, CA, USA). For Real Time PCR, 10 ng template was dissolved in 25 μL containing 200 nmol/L of each primer and 12.5 μL of 2× SYBR FAST Universal ready mix (Invitrogen, Carlsbad, CA, USA). All reactions were performed in triplicate, and the thermal cycling conditions were as follows: 2 min at 95 °C, followed by 40 cycles of 95 °C for 20 s and 60 °C for 30 s in StepOnePlus (Applied Biosystems, Foster City, CA, USA). The relative mRNA expression was calculated accordingly to the Ct method. Primers were designed using the software PRIMER31 using published data obtained from the NCBI database. Forward and reverse primer sequences were the following: human GAPDH, [NT]; human SHP, [NT]; mouse GAPDH, [NT]; mouse pro-glucagon, [NT]

SHP mRNA in HepG2 cells = experiment: RT-PCR of FXR target gene SHP mRNA in HepG2 cells; type: cell-based, human; settings: 1 and 10 µM, 18 h, vs CDCA 10 µM, Figure 2B
Method: as §4

SMILES | solubility at 24 h [1] [µM] | EC50 (human GPBAR1) [µM] | GPBAR1 Eff (%) vs 6-ECDCA (human GPBAR1) [%] | GPBAR1 Eff (%) vs TLCA (human GPBAR1) [%] | Percentage of compound remaining in solution after 40 min incubation [2] [%] | microsomal CLint at 1 µM [2] [µL/min/mg] | half-life at 1 µM [2] [h] | EC50 (human FXR) [µM] | FXR Eff (%) vs 6-ECDCA (human FXR) [%] | FXR Eff (%) vs CDCA (human FXR) [%] | FXR activity (in words) (human FXR) | pro-glucagon mRNA expression (in words) [3] | SHP mRNA expression (in words) (SHP mRNA in HepG2 cells)
CCC(C)C1CCC2C3C(O)C(CC)C4CC(O)CCC4(C)C3CCC12C (stereo not drawn) [compound 2, 6α-Ethyl-3α, 7α -dihydroxy-24-nor-5β-cholane] | 176 (≈ 66.3 µg/mL) | 1.5 ± 0.29 | 255.2 | 53 | 72.8 | 25 | 1.54 | 1.3 ± 0.12 | 46.5 | 249 | – | – | –
CCC(C)C1CCC2C3C(O)C(CC)C4CCCCC4(C)C3CCC12C (stereo not drawn) [compound 5, 6α-Ethyl-7α-hydroxy-23,24-dinor-5β-cholane] | – | – | 53.4 | 12 | – | – | – | – | 2.5 | 14 | inactive | – | –
CC[C@H]1[C@@H](O)[C@@H]2[C@H](CC[C@]3(C)[C@@H]([C@H](C)CCC(=O)O)CC[C@@H]23)[C@@]2(C)CC[C@@H](O)C[C@@H]12 [6-ECDCA, 6-ethylchenodeoxycholic acid, reference compound] | 195 (≈ 82 µg/mL) | – | – | – | 26.9 | 109 | 0.352 | – | – | – | – | – | –
CCC1C(O)C2C3CCC(C(C)CO)C3(C)CCC2C2(C)CCCCC12 (stereo not drawn) [compound 6, 6α-Ethyl-7α-hydroxy-23,24-dinor-5β-cholan-22-ol] | 162 (≈ 58.7 µg/mL) | – | 87.5 | 19 | 79.2 | 19.7 | 1.96 | 13.7 ± 2.05 | 33.4 | 185 | – | failed to regulate | more potent than CDCA
C=CC(C)C1CCC2C3C(O)C(CC)C4CC(O)CCC4(C)C3CCC12C (stereo not drawn) [compound 1, 6α-Ethyl-3α, 7α-dihydroxy-24-nor-5β-chol-23-ene] | 201 (≈ 75.3 µg/mL) | 0.14 ± 0.032 | 367.1 | 79 | 42.2 | 52.6 | 0.73 | 1.8 ± 0.5 | 45.6 | 252 | – | – | –
CCC1C(O)C2C3CCC(C(C)CO)C3(C)CCC2C2(C)CCC(O)CC12 (stereo not drawn) [compound 3, 6α-Ethyl-3α, 7α -dihydroxy-23,24-dinor-5β-cholan-22-ol] | 210 (≈ 79.5 µg/mL) | 0.43 ± 0.015 | 243.4 | 55 | 60.6 | 36.6 | 1.05 | 2.8 ± 0.45 | 45 | 257 | – | – | –
C=CC(C)C1CCC2C3C(O)C(CC)C4CCCCC4(C)C3CCC12C (stereo not drawn) [compound 4, 6α-Ethyl-7α-hydroxy-24-nor-5β-chol-23-ene] | – | – | 68.8 | 15 | – | – | – | – | 3.1 | 17 | inactive | – | –
